{
  "source": "patent US20250289774A1",
  "about": "“[…] OF A CANNABIDIOL-LIKE CANNABINOID” (Jazz Pharmaceuticals Research UK Limited, priority 2022, published 2025)",
  "key": {"[1]": {"system": "mouse model of generalised seizure", "details": "data of PCT/GB2020/052944; cited from earlier work"}, "[2]": {"assay": "Stability of Form A to ball milling (XRPD after milling)", "format": "physicochemical", "details": "6 minutes at 25 Hz", "experimental": "(§1) XRPD analyses were performed using a Panalytical Empyrean diffractometer equipped with a Cu X-ray tube and a PIXcel 1 D-Medipix3 detector system. The samples were analysed at ambient temperature in transmission mode and held between low density PVC films. The XRPD program parameters were: range 3-40° 2θ or 4-40° 2θ, step size 0.01313°, counting time 23 sec, ˜5 min run time. Samples were spun at 60 rpm during data collection. XRPD patterns were sorted, manipulated using HighScore Plus v4.9 software.\nA ball mill was used to mimic the effects of grinding that would be experienced during formulation steps such as dry blending and wet granulation.\nApproximately 45 mg of crystalline Form A material was added to a milling chamber with an agate milling ball. Using a Retsch MM200 mixer mill, the material was milled for 6 minutes at a frequency of 25 Hz. Periodically, the milling was stopped and powder that adhered to the milling chamber was scraped down. The resultant milled material was analysed using XRPD. Samples were also milled with addition of a small amount of solvent (˜10 μL)."}, "[3]": {"assay": "Stability of 6-OH CBDV Form A to compression (XRPD after pressing)", "format": "physicochemical", "details": "~60 mg in KBr pellet die, compressed overnight at ~370 MPa, analysed immediately by XRPD", "experimental": "as §1\nCrystalline Form A material (˜60 mg) was added to a KBr pellet die and compressed overnight at ˜370 MPa using a hydraulic press. The resultant solid disc was removed from the press and immediately analysed by XRPD."}},
  "data": [
    {"smiles": "C=C(C)[C@@H]1C[C@H](O)C(C)=C[C@H]1c1c(O)cc(CCC)cc1O", "note": "[6-OH CBDV, 6-hydroxy cannabidivarin]", "values": [
      {"measurement": "Anticonvulsant activity", "setting": "[1]", "value": "displays anticonvulsant activity"}
    ]},
    {"smiles": "C=C(C)[C@@H]1C[C@H](O)C(C)=C[C@H]1c1c(O)cc(CCC)cc1O", "note": "[Form A, 6-hydroxy cannabidivarin]", "values": [
      {"measurement": "Output Form after milling (XRPD)", "setting": "[2]; dry ball milling, no solvent", "value": "no change in form"},
      {"measurement": "Output Form after milling (XRPD)", "setting": "[2]; wet ball milling, water (~10 μL)", "value": "no change in form"},
      {"measurement": "Solid form after compression (XRPD)", "setting": "[3]", "value": "remained as Form A"}
    ]}
  ]
}
